This is an account of results in PubChem BioAssay (NCI).

“And” between values parts separate entries of the source, which are not always exact repeats. Equal entries are not always repeated.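 Where inhibition never reached the appropriate level, the endpoint shown equals the highest concentration tested. Otherwise, values were interpolated linearly from a five-concentration, 48-hour dose response in 96-well plates. GI50 is the concentration that inhibits growth by half. TGI is the concentration that stops growth completely.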

Test in all cases: NCI-60 cell line screen, 48 h
Test [1] relates to A498 renal.
In test [2] the test system is DU-145 prostate.
In test [3] the test system is HOP-92 NSCLC.
Test [4] has as its system M14 melanoma.
The subject of test [5] is MDA-MB-435.
Test [6] concerns NCI-H23 lung.
The subject of test [7] is NCI/ADR-RES ovarian.
Test [8] relates to SNB-19 CNS.
For test [9], the system named is SNB-75 CNS.
The subject of test [10] is SW-620 colon.

On to `Nc1c2ccccc2nc2ccccc12` (tested in a mixture with another compound), for which the GI50 in test [1] was 1.12 µM; in test [2], 2.38 µM; in test [3], 1.84 µM; in test [4], 1.87 µM; in [5] it was 2.57 µM; in test [6], 1.94 µM. For the same compound, the GI50 is 1.74 µM in test [7], 2.64 µM in [8], 3.18 µM in [9] and 1.44 µM in [10]. Moreover, the TGI in test [1] came to 2.62 µM; in test [2] it was 6.51 µM; in [3] it was 6.98 µM; in test [4], 3.92 µM; in [5], 9 µM; in test [6] it was 5.68 µM. Further, the TGI in test [7] is 6 µM; in test [8] it was 15.7 µM; in [9], 8.44 µM; in test [10] it was 10.1 µM.

On to `Cn1c(=N)n[n+]([O-])c2ccccc21`, for which the GI50 in test [1] is 3.07 µM and 9.29 µM; in [6], 2.44 µM; in test [7] it was 4.44 µM and 9.2 µM; in test [8], 2.63 µM and 6.41 µM. The TGI in test [1] is 9.7 µM and 23.2 µM; in test [2], 4.11 µM and 4.12 µM; in test [3], 90.9 µM; in test [4], 3.7 µM and 3.76 µM; in test [5] it was 1.83 µM and 2.39 µM; in test [6] it was 4.4 µM and 6.39 µM. Besides, the TGI in test [7] was > 100 µM and 42 µM; in test [8], 12.3 µM and 13.3 µM; in [9], 3.56 µM and 8.45 µM; in [10], more than 26.8 µM.

In the case of `N#CSc1ccc(S(N)(=O)=O)cc1`, the TGI in test [1] was more than 100 µM; in test [2], more than 100 µM; in test [3], more than 100 µM; in test [4] it was 45.5 µM; in [5] it was more than 100 µM; in test [6], more than 100 µM. The TGI in [7] is more than 100 µM; in test [8], more than 100 µM; in test [9], more than 100 µM; in [10] it was 98.9 µM.

Take `Oc1c(I)cc(I)cc1CN(Cc1ccccn1)Cc1ccccn1`: the GI50 in test [1] was 1.29 µM; in test [2] it was 1.57 µM; in [3], 1.18 µM; in [4], 0.766 µM; in [5] it was 2.19 µM; in test [6] it was 2.48 µM. The GI50 is 1.13 µM in [7], 0.86 µM in test [8], 0.419 µM in [9] and 0.847 µM in test [10]. For the same compound, the TGI in test [1] is 6.19 µM; in test [2] it was 20.4 µM; in test [3], 9.04 µM; in [4] it was 9.86 µM; in test [5] it was 18.7 µM; in test [6], 40.6 µM. For the same compound, the TGI in test [7] is 6.46 µM; in [8] it was more than 64.2 µM; in test [9], 7.67 µM; in [10] it was 23.5 µM.

With `O=C(O)c1ccccc1Nc1ccc2nnc(-c3ccncc3)n2n1`, the GI50 in [1] was 15.5 µM; in test [2] it was 11.5 µM; in test [3] it was 16.9 µM; in test [4] it was 7.03 µM; in [5] it was 4.02 µM; in test [6] it was 14.1 µM. Besides, the GI50 in test [7] was 18.8 µM; in test [8], 14.2 µM; in test [9] it was 12.2 µM; in test [10] it was 6.48 µM. Besides, the TGI is 29.5 µM in test [1]; 25.6 µM in test [2]; 35.8 µM in [3]; 40.9 µM in test [4]; 23.1 µM in test [5]; 54.2 µM in test [6]. The TGI was determined as 77.4 µM in test [7], 40.8 µM in test [8], 25 µM in [9] and 36 µM in test [10].

As for `CCN(CC)CC[n+]1cc2cc(OC)c(OC)cc2c2ccc3cc4c(cc3c21)OCO4`, the GI50 in test [1] is 0.514 µM; in [2], 0.337 µM; in [3] it was 1.37 µM; in test [4], 0.654 µM; in test [5], 0.675 µM; in [6] it was 0.618 µM. The GI50 was 3.72 µM in test [7], 0.452 µM in [8], 0.64 µM in [9] and 0.442 µM in test [10]. In addition, the TGI worked out at 2.92 µM in test [1]; 1.96 µM in [2]; 3.88 µM in test [3]; 2.31 µM in test [4]; 2.14 µM in [5]; 2.3 µM in test [6]. In addition, the TGI came out at 22 µM in test [7], 1.77 µM in test [8], 2.56 µM in test [9] and 2.36 µM in [10].

On to `Cc1cc2nc(C(Cl)Cl)nc(-c3ccccc3)n2n1`, for which the GI50 is 2.6 µM in test [1]; 1.95 µM in test [2]; 2.43 µM in [3]; 5.84 µM in [5]; 3.06 µM in [6]; 3.78 µM in test [7]. Moreover, the GI50 was 4.04 µM in [8], 1.75 µM in [9] and 3.22 µM in test [10]. Further, the TGI turned out to be 11.2 µM in [1]; 5.41 µM in test [2]; 12.2 µM in [3]; 23.9 µM in test [5]; 10.9 µM in [6]; 29.9 µM in test [7]. The TGI in test [8] is 28 µM; in test [9], 12.9 µM; in [10], 28 µM.
